The subject of the data set is rodent carcinogenicity bioassays, tumor incidence. Kind of data set: CCRIS carcinogenicity studies. The source says: The CCRIS database contains chemical records with carcinogenicity, mutagenicity, tumor promotion, and tumor inhibition test results. It was developed by the National Cancer Institute (NCI). Data are derived from studies cited in primary journals, current awareness tools, NCI reports, and other sources. Test results have been reviewed by experts in carcinogenesis and mutagenesis.
CCRIS provides historical information from the years 1985 - 2011. It is no longer updated.
This is an archive assay for CCRIS carcinogenicity studies.

Active and inactive are the calls of the source. How the calls were made is not given here.

Our source for the carcinogen call values is PubChem BioAssay AID1259411 (Chemical Carcinogenesis Research Information System (CCRIS), 2018).

For `C=C(Cl)CSC(=S)N(CC)CC`, the carcinogen call by setting is: (Species: MOUSE, Strain/Sex: B6C3F1/FEMALE, Route: ORAL, Dose: 0, 908, 1815 PPM TWA, IN DIET FOR 74 WK (STUDY DURATION: 90-91 WK), Dose: 0, 908, 1815 PPM TWA, IN DIET FOR 74 WK (STUDY DURATION: 90-91 WK), Tumor Site: Type of Lesion: MAMMARY GLAND: ADENOCARCINOMA OR SQUAMOUS METAPLASIA) “active; positive”; (Species: MOUSE, Strain/Sex: B6C3F1/MALE, Route: ORAL, Dose: 0, 949, 1897 PPM TWA, IN DIET FOR 74 WK (STUDY DURATION: 91 WK), Dose: 0, 949, 1897 PPM TWA, IN DIET FOR 74 WK (STUDY DURATION: 91 WK), Tumor Site: Type of Lesion: LUNG: ALVEOLAR/BRONCHIOLAR ADENOMA OR ALVEOLAR/BRONCHIOLAR CARCINOMA) “active; positive”; (Species: RAT, Strain/Sex: OSBORNE-MENDEL/FEMALE, Route: ORAL, Dose: 0, 250, 404 PPM TWA, IN DIET FOR 63-78 WK (STUDY DURATION: 104-111 WK), Dose: 0, 250, 404 PPM TWA, IN DIET FOR 63-78 WK (STUDY DURATION: 104-111 WK), Tumor Site: Type of Lesion: MAMMARY GLAND: ADENOCARCINOMA) “active; positive”; (Species: RAT, Strain/Sex: OSBORNE-MENDEL/MALE, Route: ORAL, Dose: 0, 250, 410 PPM TWA, IN DIET FOR 64-78 WK (STUDY DURATION: 103-111 WK), Dose: 0, 250, 410 PPM TWA, IN DIET FOR 64-78 WK (STUDY DURATION: 103-111 WK), Tumor Site: Type of Lesion: STOMACH: PAPILLOMA, SQUAMOUS CELL PAPILLOMA OR SQUAMOUS CELL CARCINOMA) “active; positive”.
As for `CCNC(=O)N(C)N=O`, the carcinogen call was “active; positive” (Species: RAT, Strain/Sex: F344/FEMALE, Route: GAVAGE, Dose: 0, 20, 40 UMOL/WK IN CORN OIL/ETHYL ACETATE (2: 1) FOR 30 WK (LOW DOSE) OR 15 WK (HIGH DOSE) FOR TOTAL DOSES OF 0, 0.6;, Dose: 0, 20, 40 UMOL/WK IN CORN OIL/ETHYL ACETATE (2: 1) FOR 30 WK (LOW DOSE) OR 15 WK (HIGH DOSE) FOR TOTAL DOSES OF 0, 0.6;, Tumor Site: Type of Lesion: NERVOUS SYSTEM: TUMOR, THYMUS: TUMOR); “active; positive” (Species: RAT, Strain/Sex: F344/FEMALE, Route: ORAL, Dose: 0, 20, 40 UMOL/WK IN DRINKING WATER FOR 30 WK FOR TOTAL DOSES OF 0, 0.6, 1.2 MMOL (STUDY DURATION: LIFETIME), Dose: 0, 20, 40 UMOL/WK IN DRINKING WATER FOR 30 WK FOR TOTAL DOSES OF 0, 0.6, 1.2 MMOL (STUDY DURATION: LIFETIME), Tumor Site: Type of Lesion: NERVOUS SYSTEM: TUMOR, KIDNEY: TUMOR); “active; positive” (Species: RAT, Strain/Sex: F344/MALE, Route: GAVAGE, Dose: 0, 20, 40 UMOL/WK IN CORN OIL/ETHYL ACETATE (2: 1) FOR 30 WK FOR TOTAL DOSES OF 0, 0.6, 1.2 MMOL (STUDY DURATION: LIFETI, Dose: 0, 20, 40 UMOL/WK IN CORN OIL/ETHYL ACETATE (2: 1) FOR 30 WK FOR TOTAL DOSES OF 0, 0.6, 1.2 MMOL (STUDY DURATION: LIFETI, Tumor Site: Type of Lesion: NERVOUS SYSTEM: TUMOR, TESTIS: MESOTHELIOMA); “active; positive” (Species: RAT, Strain/Sex: F344/MALE, Route: ORAL, Dose: 0, 20, 40 UMOL/WK IN DRINKING WATER FOR 30 WK FOR TOTAL DOSES OF 0, 0.6, 1.2 MMOL (STUDY DURATION: LIFETIME), Dose: 0, 20, 40 UMOL/WK IN DRINKING WATER FOR 30 WK FOR TOTAL DOSES OF 0, 0.6, 1.2 MMOL (STUDY DURATION: LIFETIME), Tumor Site: Type of Lesion: LUNG: TUMOR, NERVOUS SYSTEM: TUMOR).
For the molecule `O=C1C=C[C@H]2CO[C@@H]1O2`, the carcinogen call (Species: MOUSE, Strain/Sex: CD-1/FEMALE, Route: DERMAL, Dose: 0, 2.5 UMOL/0.1 DMSO 2/WK FOR 5 WK FOLLOWED 1 WK LATER BY 0.1 ML ACETONE 2/WK FOR 47 WK (STUDY DURATION: 52 WK)) is “inactive; negative”.
Consider `CCC1CO1` (stereo not given), for which the carcinogen call is “inactive; negative” (Species: MOUSE, Strain/Sex: B6C3F1/FEMALE, Route: INHALATION, Dose: 0, 50, 100 PPM 6 HR/D 5D/WK FOR 102 WK (STUDY DURATION: 103 WK), Dose: 0, 50, 100 PPM 6 HR/D 5D/WK FOR 102 WK (STUDY DURATION: 103 WK)); “inactive; negative” (Species: MOUSE, Strain/Sex: B6C3F1/MALE, Route: INHALATION, Dose: 0, 50, 100 PPM 6 HR/D 5D/WK FOR 102 WK (STUDY DURATION: 103 WK), Dose: 0, 50, 100 PPM 6 HR/D 5D/WK FOR 102 WK (STUDY DURATION: 103 WK)); “equivocal” (Species: RAT, Strain/Sex: F344/FEMALE, Route: INHALATION, Dose: 0, 200, 400 PPM 6 HR/D 5 D/WK FOR 103 WK (STUDY DURATION: 104 WK), Dose: 0, 200, 400 PPM 6 HR/D 5 D/WK FOR 103 WK (STUDY DURATION: 104 WK), Tumor Site: Type of Lesion: NASAL CAVITY: PAPILLARY ADENOMA); “active; positive” (Species: RAT, Strain/Sex: F344/MALE, Route: INHALATION, Dose: 0, 200, 400 PPM 6 HR/D 5D/WK FOR 103 WK (STUDY DURATION: 104 WK), Dose: 0, 200, 400 PPM 6 HR/D 5D/WK FOR 103 WK (STUDY DURATION: 104 WK), Tumor Site: Type of Lesion: NASAL CAVITY: PAPILLARY ADENOMA, LUNG: ALVEOLAR/BRONCHIOLAR CARCINOMA, LUNG: ALVEOLAR/BRONCHIOLAR ADENOMA OR CARCINOMA, Tumor Site: Type of Lesion: NASAL CAVITY: PAPILLARY ADENOMA, LUNG: ALVEOLAR/BRONCHIOLAR CARCINOMA, LUNG: ALVEOLAR/BRONCHIOLAR ADENOMA OR CARCINOMA).
For `[As]`, the carcinogen call (Species: HUMAN, Route: INHALATION, ORAL, Tumor Site: Type of Lesion: LUNG, INTEGUMENTARY SYSTEM (SKIN)) was “active; positive”.
Take `CC(C)(c1ccc(O)cc1)c1ccc(O)cc1`: the carcinogen call was “inactive; negative” (Species: MOUSE, Strain/Sex: B6C3F1/FEMALE, Route: ORAL, Dose: 0, 5000, 10000 PPM IN DIET FOR 103 WK (STUDY DURATION: 103 WK), Dose: 0, 5000, 10000 PPM IN DIET FOR 103 WK (STUDY DURATION: 103 WK)); “equivocal” (Species: MOUSE, Strain/Sex: B6C3F1/MALE, Route: ORAL, Dose: 0, 1000, 5000 PPM IN DIET FOR 103 WK (STUDY DURATION: 103 WK), Dose: 0, 1000, 5000 PPM IN DIET FOR 103 WK (STUDY DURATION: 103 WK), Tumor Site: Type of Lesion: HEMATOPOIETIC SYSTEM: LYMPHOMA OR LEUKEMIA); “inactive; negative (nonneoplastic and preneoplastic lesions observed in ovary/oviduct and” (Species: Mouse, Strain/Sex: CD-1/Female (24/group); Route: Subcutaneous; Dose: 0; 10; 100; 1000 ug/kg in corn oil, once a day from days 1-5 of life; study duration 18 mo); Dose: 0; 10; 100; 1000 ug/kg in corn oil, once a day from days 1-5 of life; study duration 18 mo), Tumor Site: Type of Lesion: Uterus, leiomyoma (0/18; 1/23; 2/20; 1/16 [multiple lesions]), Tumor Site: Type of Lesion: Uterus, leiomyoma (0/18; 1/23; 2/20; 1/16 [multiple lesions])); “equivocal” (Species: RAT, Strain/Sex: F344/FEMALE, Route: ORAL, Dose: 0, 1000, 2000 PPM IN DIET FOR 103 WK (STUDY DURATION: 103 WK), Dose: 0, 1000, 2000 PPM IN DIET FOR 103 WK (STUDY DURATION: 103 WK), Tumor Site: Type of Lesion: HEMATOPOIETIC SYSTEM: LEUKEMIA); “equivocal” (Species: RAT, Strain/Sex: F344/MALE, Route: ORAL, Dose: 0, 1000, 2000 PPM IN DIET FOR 103 WK (STUDY DURATION: 103 WK), Dose: 0, 1000, 2000 PPM IN DIET FOR 103 WK (STUDY DURATION: 103 WK), Tumor Site: Type of Lesion: HEMATOPOIETIC SYSTEM: LEUKEMIA); “active; positive (significant increase at all dose levels at pnd 50; significant at 2.5” (Species: Rat, Strain/Sex: Wistar-Furth/Female (?/group with maximum of 8 pups per dam), Route: Osmotic pump to dams, Dose: 0, 2.5, 25, 250, 1000 ug/kg bw/day from embryonic day 9 to postnatal day 1, study duration 50 or 95 postnatal days, Dose: 0, 2.5, 25, 250, 1000 ug/kg bw/day from embryonic day 9 to postnatal day 1, study duration 50 or 95 postnatal days, Tumor Site: Type of Lesion: Mammary gland, ductal hyperplasia).
